In the NIST ThermoML archive (doi:10.1016/j.fluid.2007.12.007):
± gives the expanded uncertainty stated by the source.

Tests used:
[1] = 101.33 kPa, Liquid
[2] = xn = mol fraction of the nth substance listed; conditions: 101 kPa, Liquid

## CC(O)CCO (stereo not drawn) [1,3-butanediol]
[1]; 293.15 K
  speed of sound: 1539.6 ± 3.3 m/s
  viscosity: 130.32 ± 11 mPa·s
[1]; 298.15 K
  speed of sound: 1523.4 ± 3.2 m/s
  viscosity: 97.26 ± 5.9 mPa·s
[1]; 303.15 K
  speed of sound: 1506.3 ± 3.2 m/s
  viscosity: 69.84 ± 2.3 mPa·s
[1]; 308.15 K
  speed of sound: 1492.5 ± 3.2 m/s
  viscosity: 52.54 ± 0.69 mPa·s
[1]; 313.15 K
  speed of sound: 1480.8 ± 3.2 m/s
  viscosity: 39.42 ± 0.95 mPa·s
[1]; 318.15 K
  speed of sound: 1470.3 ± 3.2 m/s
  viscosity: 30.51 ± 0.75 mPa·s

## OCCCCO [1,4-butanediol]
[1]; 293.15 K
  speed of sound: 1616.4 ± 3.4 m/s
  viscosity: 97.26 ± 4.5 mPa·s
[1]; 298.15 K
  speed of sound: 1605.6 ± 3.4 m/s
  viscosity: 72.75 ± 1.9 mPa·s
[1]; 303.15 K
  speed of sound: 1595.9 ± 3.3 m/s
  viscosity: 56.89 ± 0.56 mPa·s
[1]; 308.15 K
  speed of sound: 1587.3 ± 3.3 m/s
  viscosity: 44.88 ± 0.75 mPa·s
[1]; 313.15 K
  speed of sound: 1579.8 ± 3.3 m/s
  viscosity: 35.81 ± 0.6 mPa·s
[1]; 318.15 K
  speed of sound: 1570.2 ± 3.3 m/s
  viscosity: 29.05 ± 0.5 mPa·s

## CCCCO [butan-1-ol]
[1]; 293.15 K
  speed of sound: 1262.4 ± 2.8 m/s
  viscosity: 2.936 ± 0.066 mPa·s
[1]; 298.15 K
  speed of sound: 1242.6 ± 2.7 m/s
  viscosity: 2.542 ± 0.058 mPa·s
[1]; 303.15 K
  speed of sound: 1224.6 ± 2.7 m/s
  viscosity: 2.275 ± 0.052 mPa·s
[1]; 308.15 K
  speed of sound: 1207.6 ± 2.7 m/s
  viscosity: 1.998 ± 0.046 mPa·s
[1]; 313.15 K
  speed of sound: 1189.2 ± 2.7 m/s
  viscosity: 1.744 ± 0.041 mPa·s
[1]; 318.15 K
  speed of sound: 1170 ± 2.6 m/s
  viscosity: 1.571 ± 0.037 mPa·s

## CCC(C)O (stereo not drawn) [butan-2-ol]
[1]; 293.15 K
  speed of sound: 1232.6 ± 2.8 m/s
  viscosity: 4.212 ± 0.43 mPa·s
[1]; 298.15 K
  speed of sound: 1212.6 ± 2.7 m/s
  viscosity: 3.034 ± 0.094 mPa·s
[1]; 303.15 K
  speed of sound: 1194.6 ± 2.7 m/s
  viscosity: 2.495 ± 0.076 mPa·s
[1]; 308.15 K
  speed of sound: 1174.5 ± 2.7 m/s
  viscosity: 2.106 ± 0.064 mPa·s
[1]; 313.15 K
  speed of sound: 1155.9 ± 2.6 m/s
  viscosity: 1.784 ± 0.055 mPa·s
[1]; 318.15 K
  speed of sound: 1138.6 ± 2.6 m/s
  viscosity: 1.524 ± 0.048 mPa·s

## NC=O [formamide]
[1]; 293.15 K
  speed of sound: 1615.8 ± 3.3 m/s
  viscosity: 3.654 ± 0.081 mPa·s
[1]; 298.15 K
  speed of sound: 1601 ± 3.3 m/s
  viscosity: 3.322 ± 0.074 mPa·s
[1]; 303.15 K
  speed of sound: 1589.2 ± 3.3 m/s
  viscosity: 2.966 ± 0.067 mPa·s
[1]; 308.15 K
  speed of sound: 1577.2 ± 3.3 m/s
  viscosity: 2.653 ± 0.06 mPa·s
[1]; 313.15 K
  speed of sound: 1565.1 ± 3.2 m/s
  viscosity: 2.404 ± 0.055 mPa·s
[1]; 318.15 K
  speed of sound: 1553.1 ± 3.2 m/s
  viscosity: 2.219 ± 0.051 mPa·s

## NC=O [formamide] + CCCCO
[2]; 293.15 K, x1 = 0.1093
  speed of sound: 1302.3 ± 2.8 m/s
  viscosity: 3.225 ± 0.072 mPa·s
[2]; 293.15 K, x1 = 0.2057
  speed of sound: 1337.7 ± 2.9 m/s
  viscosity: 3.446 ± 0.077 mPa·s
[2]; 293.15 K, x1 = 0.3138
  speed of sound: 1377 ± 3 m/s
  viscosity: 3.598 ± 0.08 mPa·s
[2]; 293.15 K, x1 = 0.4104
  speed of sound: 1412 ± 3 m/s
  viscosity: 3.696 ± 0.082 mPa·s
[2]; 293.15 K, x1 = 0.5115
  speed of sound: 1448.4 ± 3.1 m/s
  viscosity: 3.754 ± 0.083 mPa·s
[2]; 293.15 K, x1 = 0.6124
  speed of sound: 1484.4 ± 3.1 m/s
  viscosity: 3.777 ± 0.084 mPa·s
[2]; 293.15 K, x1 = 0.7081
  speed of sound: 1518 ± 3.2 m/s
  viscosity: 3.77 ± 0.084 mPa·s
[2]; 293.15 K, x1 = 0.8123
  speed of sound: 1554 ± 3.2 m/s
  viscosity: 3.744 ± 0.083 mPa·s
[2]; 293.15 K, x1 = 0.9086
  speed of sound: 1586.4 ± 3.3 m/s
  viscosity: 3.708 ± 0.082 mPa·s
[2]; 298.15 K, x1 = 0.1093
  speed of sound: 1281.2 ± 2.8 m/s
  viscosity: 2.81 ± 0.064 mPa·s
[2]; 298.15 K, x1 = 0.2057
  speed of sound: 1315.3 ± 2.9 m/s
  viscosity: 3.018 ± 0.068 mPa·s
[2]; 298.15 K, x1 = 0.3138
  speed of sound: 1353.7 ± 2.9 m/s
  viscosity: 3.181 ± 0.071 mPa·s
[2]; 298.15 K, x1 = 0.4104
  speed of sound: 1388.3 ± 3 m/s
  viscosity: 3.285 ± 0.073 mPa·s
[2]; 298.15 K, x1 = 0.5115
  speed of sound: 1424.6 ± 3 m/s
  viscosity: 3.352 ± 0.075 mPa·s
[2]; 298.15 K, x1 = 0.6124
  speed of sound: 1461 ± 3.1 m/s
  viscosity: 3.386 ± 0.076 mPa·s
[2]; 298.15 K, x1 = 0.7081
  speed of sound: 1495.5 ± 3.1 m/s
  viscosity: 3.389 ± 0.076 mPa·s
[2]; 298.15 K, x1 = 0.8123
  speed of sound: 1533.1 ± 3.2 m/s
  viscosity: 3.379 ± 0.076 mPa·s
[2]; 298.15 K, x1 = 0.9086
  speed of sound: 1567.9 ± 3.2 m/s
  viscosity: 3.355 ± 0.075 mPa·s
[2]; 303.15 K, x1 = 0.1093
  speed of sound: 1261.5 ± 2.8 m/s
  viscosity: 2.506 ± 0.057 mPa·s
[2]; 303.15 K, x1 = 0.2057
  speed of sound: 1294.8 ± 2.8 m/s
  viscosity: 2.693 ± 0.061 mPa·s
[2]; 303.15 K, x1 = 0.3138
  speed of sound: 1332.6 ± 2.9 m/s
  viscosity: 2.846 ± 0.064 mPa·s
[2]; 303.15 K, x1 = 0.4104
  speed of sound: 1367.1 ± 2.9 m/s
  viscosity: 2.947 ± 0.066 mPa·s
[2]; 303.15 K, x1 = 0.5115
  speed of sound: 1403.4 ± 3 m/s
  viscosity: 3.003 ± 0.068 mPa·s
[2]; 303.15 K, x1 = 0.6124
  speed of sound: 1440.3 ± 3 m/s
  viscosity: 3.032 ± 0.068 mPa·s
[2]; 303.15 K, x1 = 0.7081
  speed of sound: 1475.4 ± 3.1 m/s
  viscosity: 3.036 ± 0.068 mPa·s
[2]; 303.15 K, x1 = 0.8123
  speed of sound: 1515.3 ± 3.2 m/s
  viscosity: 3.019 ± 0.068 mPa·s
[2]; 303.15 K, x1 = 0.9086
  speed of sound: 1552.5 ± 3.2 m/s
  viscosity: 2.996 ± 0.067 mPa·s
[2]; 308.15 K, x1 = 0.1093
  speed of sound: 1243.5 ± 2.7 m/s
  viscosity: 2.202 ± 0.051 mPa·s
[2]; 308.15 K, x1 = 0.2057
  speed of sound: 1275.6 ± 2.8 m/s
  viscosity: 2.371 ± 0.054 mPa·s
[2]; 308.15 K, x1 = 0.3138
  speed of sound: 1312.7 ± 2.9 m/s
  viscosity: 2.516 ± 0.057 mPa·s
[2]; 308.15 K, x1 = 0.4104
  speed of sound: 1347 ± 2.9 m/s
  viscosity: 2.616 ± 0.059 mPa·s
[2]; 308.15 K, x1 = 0.5115
  speed of sound: 1383.6 ± 3 m/s
  viscosity: 2.676 ± 0.061 mPa·s
[2]; 308.15 K, x1 = 0.6124
  speed of sound: 1420.5 ± 3 m/s
  viscosity: 2.702 ± 0.061 mPa·s
[2]; 308.15 K, x1 = 0.7081
  speed of sound: 1456.5 ± 3.1 m/s
  viscosity: 2.705 ± 0.061 mPa·s
[2]; 308.15 K, x1 = 0.8123
  speed of sound: 1497.9 ± 3.1 m/s
  viscosity: 2.688 ± 0.061 mPa·s
[2]; 308.15 K, x1 = 0.9086
  speed of sound: 1537.2 ± 3.2 m/s
  viscosity: 2.671 ± 0.06 mPa·s
[2]; 313.15 K, x1 = 0.1093
  speed of sound: 1223.7 ± 2.7 m/s
  viscosity: 1.92 ± 0.044 mPa·s
[2]; 313.15 K, x1 = 0.2057
  speed of sound: 1255.5 ± 2.8 m/s
  viscosity: 2.081 ± 0.048 mPa·s
[2]; 313.15 K, x1 = 0.3138
  speed of sound: 1292.1 ± 2.8 m/s
  viscosity: 2.224 ± 0.051 mPa·s
[2]; 313.15 K, x1 = 0.4104
  speed of sound: 1326 ± 2.9 m/s
  viscosity: 2.324 ± 0.053 mPa·s
[2]; 313.15 K, x1 = 0.5115
  speed of sound: 1362.6 ± 2.9 m/s
  viscosity: 2.388 ± 0.055 mPa·s
[2]; 313.15 K, x1 = 0.6124
  speed of sound: 1399.8 ± 3 m/s
  viscosity: 2.418 ± 0.055 mPa·s
[2]; 313.15 K, x1 = 0.7081
  speed of sound: 1437 ± 3 m/s
  viscosity: 2.426 ± 0.055 mPa·s
[2]; 313.15 K, x1 = 0.8123
  speed of sound: 1479.9 ± 3.1 m/s
  viscosity: 2.423 ± 0.055 mPa·s
[2]; 313.15 K, x1 = 0.9086
  speed of sound: 1521.9 ± 3.2 m/s
  viscosity: 2.413 ± 0.055 mPa·s
[2]; 318.15 K, x1 = 0.1093
  speed of sound: 1203.3 ± 2.7 m/s
  viscosity: 1.725 ± 0.04 mPa·s
[2]; 318.15 K, x1 = 0.2057
  speed of sound: 1234.5 ± 2.7 m/s
  viscosity: 1.874 ± 0.044 mPa·s
[2]; 318.15 K, x1 = 0.3138
  speed of sound: 1270.8 ± 2.8 m/s
  viscosity: 2.008 ± 0.046 mPa·s
[2]; 318.15 K, x1 = 0.4104
  speed of sound: 1305 ± 2.8 m/s
  viscosity: 2.106 ± 0.049 mPa·s
[2]; 318.15 K, x1 = 0.5115
  speed of sound: 1341.3 ± 2.9 m/s
  viscosity: 2.167 ± 0.05 mPa·s
[2]; 318.15 K, x1 = 0.6124
  speed of sound: 1379.1 ± 3 m/s
  viscosity: 2.204 ± 0.051 mPa·s
[2]; 318.15 K, x1 = 0.7081
  speed of sound: 1417.5 ± 3 m/s
  viscosity: 2.217 ± 0.051 mPa·s
[2]; 318.15 K, x1 = 0.8123
  speed of sound: 1461.9 ± 3.1 m/s
  viscosity: 2.216 ± 0.051 mPa·s
[2]; 318.15 K, x1 = 0.9086
  speed of sound: 1506.6 ± 3.2 m/s
  viscosity: 2.216 ± 0.051 mPa·s
